Values joined by “and” are separate entries in the source; they are usually repeats but may differ in a detail not shown here. Equal values may be shown once. Read-outs that look alike come from different tables or passages of the source.
Tests used:
[1] = Crossover pharmacokinetics in dogs, oral vs 30-min intravenous infusion, LC-MS/MS; assay type: in vivo, male beagle dogs; details: for AUC(0-inf): read-out: AUC(inf) of L-lysine-d-amphetamine; for Cmax: read-out: Cmax of L-lysine-d-amphetamine; for MRT: read-out: MRT of L-lysine-d-amphetamine; for Vd: read-out: Vss of L-lysine-d-amphetamine; for half-life: read-out: t1/2 of L-lysine-d-amphetamine (converted)
Source text: This was a non-randomized, two-treatment crossover study. All animals were maintained on their normal diet and were fasted overnight prior to each dose administration. L-lysine-d-amphetamine dose was based on the body weight measured on the morning of each dosing day. The actual dose delivered was based on syringe weight before and after dosing. Serial blood samples were obtained from each animal by direct venipuncture of a jugular vein using vacutainer tubes containing sodium heparin as the anticoagulant. Derived plasma samples were stored frozen until shipment to the Quest Pharmaceutical Services, Inc. (Newark, Del.). Pharmacokinetic analysis of the plasma assay results was conducted by Calvert. Animals were treated as follows:
Oral: The test article was administered to each animal via a single oral gavage. On Day 1, animals received the oral dose by gavage using an esophageal tube attached to a syringe. Dosing tubes were flushed with approximately 20 mL tap water to ensure the required dosing solution was delivered.
Intravenous: On Day 8, animals received L-lysine-d-amphetamine as a single 30-minute intravenous infusion into a cephalic vein.
Blood: Serial blood samples (2 mL) were collected using venipuncture tubes containing sodium heparin. Blood samples were taken at 0, 0.25, 0.5, 1, 2, 4, 8, 12, 24, 48, and 72 hours post-oral dosing. […] Collected blood samples were chilled immediately.
Plasma: Plasma samples were obtained by centrifugation of blood samples. Duplicate plasma samples (about 0.2 mL each) were transferred into prelabeled plastic vials and stored frozen at approximately −70° C.
Microsoft Excel (Version 6, Microsoft Corp., Redmond, Wash.) was used for calculation of mean plasma concentration and graphing of the plasma concentration-time data. Pharmacokinetic analysis (non-compartmental) was performed using the WinNonlin® software program (Version 4.1, Pharsight, Inc. Mountain View, Calif.). The maximum concentration, Cmax, and the time to Cmax, Tmax, were observed values. The area under the plasma concentration-time curve (AUC) was determined using linear-log trapezoidal rules. The apparent terminal rate constant (λz) was derived using linear least-squares regression with visual inspection of the data to determine the appropriate number of points (minimum of 3 data points) for calculating λz. The AUC(0-inf) was calculated as the sum of AUC(0-t) and Cpred/λz, where Cpred was the predicted concentration at the time of the last quantifiable concentration. The plasma clearance (CL/F) was determined as the ratio of Dose/AUC (0-inf). The mean residence time (MRT) was calculated as the ratio of AUMC(0-inf)/AUC (0-inf), where AUMC(0-inf) was the area under the first moment curve from the time zero to infinity. The volume of distribution at steady state (Vss) was estimated as CL*MRT. Half-life was calculated as In2/λz. The oral bioavailability (F) was calculated as the ratio of AUC(0-inf) following oral dosing to AUC(0-inf) following intravenous dosing. Descriptive statistics (mean and standard deviation) of the pharmacokinetic parameters were calculated using Microsoft Excel.
Blood samples were collected up to 24 and 72 hour after the intravenous and oral does, respectively. Plasma samples were analyzed using a LC-MS/MS assay which provided an LLOQ of 1 ng/mL for both analytes.

Male Sprague-Dawley rats = assay: Locomotor activity after intranasal administration with and without CMC; assay type: in vivo; details: 1.0 mg/kg
Sprague Dawley rats = assay: Single-dose oral toxicity; assay type: in vivo; details: rat; for Observable signs: single oral dose
Protocol: Three male and three female Sprague Dawley rats per group were given a single oral administration of L-lysine-d-amphetamine at 0.1, 1.0, 10, 60, 100 or 1000 mg/kg (Table 44).
Animals found dead, or sacrificed moribund were necropsied and discarded. A total of one animal/sex/group was necropsied upon scheduled or unscheduled death.

[2] = Bolus intravenous bioavailability in rats, LC/MS/MS; details: rat
[3] = male beagle dogs 1-3 and Mean, 30-min iv infusion, 2 mg/kg/h (free form), 2 mg/kg
[4] = male beagle dogs 1-3 and Mean, oral, 2 mg/kg (free form), 2 mg/kg
[5] = male, beagle, dog, plasma, iv, 1 mg/kg, male beagle dog, IV, 1 mg/kg d-amphetamine base, mean
[6] = male, beagle, dog, plasma, iv, 2 mg/kg, male beagle dogs 1-3 and Mean, 30-min iv infusion, 2 mg/kg/h (free form)
[7] = male, beagle, dog, plasma, po, 1 mg/kg, male beagle dog, oral, 1 mg/kg d-amphetamine base, mean

Compound: CC(Cc1ccccc1)NC(=O)C(N)CCCCN [L-lysine-d-amphetamine, 2,6-diaminohexanoic acid-(1-methyl-2-phenylethyl)-amide]
- Tmax ([1]; dog, plasma, male beagle dogs 1-3 and median, 30-min iv infusion, 2 mg/kg/h (free form), read-out: Tmax of L-lysine-d-amphetamine): 29.4 min
- Tmax ([1]; dog, plasma, male beagle dogs 1-3 and median, oral, 2 mg/kg (free form), read-out: Tmax of L-lysine-d-amphetamine): 30 min
- AUC(0-t) of L-lysine-d-amphetamine [1, 3]: 898.2 ng·h/mL
- AUC(inf) of L-lysine-d-amphetamine [1, 3]: 900.2 ng·h/mL and 1076.1 ng·h/mL
- CL of L-lysine-d-amphetamine [1, 3]: 37.03 mL/min/kg and 30.98 mL/min/kg
- Cmax of L-lysine-d-amphetamine [1, 3]: 1470.3 ng/mL
- MRT of L-lysine-d-amphetamine [1, 3]: 21.6 min and 19.2 min
- Vss of L-lysine-d-amphetamine [1, 3]: 0.8074 L/kg
- t1/2 of L-lysine-d-amphetamine [1, 3]: 43.2 min
- AUC(0-t) of L-lysine-d-amphetamine [1, 4]: 318.0 ng·h/mL
- AUC(inf) of L-lysine-d-amphetamine [1, 4]: 312.0 ng·h/mL and 277.1 ng·h/mL
- CL/F of L-lysine-d-amphetamine [1, 4]: 106.8 mL/min/kg and 120.3 mL/min/kg
- F of L-lysine-d-amphetamine [1, 4]: 34.3% and 34.0% and 30.8%
- MRT of L-lysine-d-amphetamine [1, 4]: 40.8 min
- t1/2 of L-lysine-d-amphetamine [1, 4]: 27 min and 14.4 min
- AUC(0-inf) [1, 5]: 964 ng·h/mL
- Cmax [1, 5]: 1650 ng/mL
- MRT [1, 5]: 19.8 min
- Vd [1, 5]: 0.689 L/kg
- half-life [1, 5]: 52.8 min
- Tmax ([1]; male, beagle, dog, plasma, iv, 1 mg/kg, read-out: Tmax of L-lysine-d-amphetamine (median)): 29.4 min
- AUC(0-t) ([1]; male, beagle, dog, plasma, iv, 2 mg/kg, male beagle dogs 1-3 and Mean, 30-min iv infusion, 2 mg/kg/h (free form), read-out: AUC(0-t) of L-lysine-d-amphetamine): 914 ng·h/mL
- AUC(0-inf) [1, 6]: 917 ng·h/mL
- clearance ([1]; male, beagle, dog, plasma, iv, 2 mg/kg, male beagle dogs 1-3 and Mean, 30-min iv infusion, 2 mg/kg/h (free form), read-out: CL of L-lysine-d-amphetamine (converted)): 36.4 mL/min/kg
- Cmax [1, 6]: 1650 ng/mL
- MRT [1, 6]: 18 min
- Vd [1, 6]: 0.656 L/kg
- half-life [1, 6]: 63 min
- AUC(0-inf) [1, 7]: 319 ng·h/mL
- CL/F ([1]; male, beagle, dog, plasma, po, 1 mg/kg, male beagle dog, oral, 1 mg/kg d-amphetamine base, mean, read-out: CL/F of L-lysine-d-amphetamine (converted)): 106 mL/min/kg
- Cmax [1, 7]: 328 ng/mL
- MRT [1, 7]: 48.6 min
- half-life [1, 7]: 23.4 min
- bioavailability ([1]; male, beagle, dog, plasma, po, 1 mg/kg, read-out: F (absolute oral bioavailability) of L-lysine-d-amphetamine): 33%
- Tmax ([1]; male, beagle, dog, plasma, po, 1 mg/kg, read-out: Tmax of L-lysine-d-amphetamine (median)): 30 min
- Percent d-amphetamine (Male Sprague-Dawley rats; activity above baseline relative to d-amphetamine): 35%
- Increase in activity over baseline compared to d-amphetamine dosed animals (Male Sprague-Dawley rats; rat, with CMC): 9%
- Deaths (Sprague Dawley rats; single oral 1000 mg/kg, 7 days): only one death occurred out of a group of six animals
- Observable signs (Sprague Dawley rats; Groups 1-3 (doses 0.1 to 1000 mg/kg in six groups)): no observable signs
- Observable signs (Sprague Dawley rats; Groups 4-6 (doses 0.1 to 1000 mg/kg in six groups)): increased motor activity within two hours post-dose
- Tmax ([2]; male, Sprague-Dawley, plasma, iv, […]): 4.98 min
- Cmax of d-amphetamine relative to d-amphetamine ([2]; bolus intravenous): about one-fourth

Source: patent US7375083B2, “Pharmaceutical compositions for prevention of overdose or abuse” (Shire LLC, priority 2003, dated 2008)
